Results on one compound are retold here after patent US5677466A, “Labelled fibrinogen receptor antagonists, the use thereof and processes for preparing them” (Dr. Karl Thomae, GmbH, priority 1992, dated 1997).

For the experiment, the system named is fibrinogen receptor. The experiment in a line: fibrinogen receptor binding test with ^3 H-BIBU 52 on human thrombocytes in plasma. To be noted: in the presence of plasma, non-labelled BIBU 52 as competitor. The protocol:
The fibrinogen receptor binding test according to the invention was carried out, for example, using (3S,5S)-5-[(4'-amidino-4-biphenylyl)-oxymethyl]-3-carboxymethyl-pyrrolidin-2-one-[3-^3 H-4-biphenylyl][=^3 H-BIBU 52 ZW] as ligand in the following manner:
A suspension of human thrombocytes in plasma is incubated with ^3 H-BIBU 52 and varying concentrations of the substance to be tested. The free and bound ligand is separated off by centrifuging and quantitatively determined by scintillation counting. The inhibition of the ^3 H-BIBU 52 binding by the test substance is determined from the measurements obtained.
In order, for example, to measure the competition of binding of ^3 H-BIBU 52 by non-labelled BIBU 52, blood is taken from an anticubital vein and anticoagulated with trisodium citrate (final concentration 13 mM). The blood is centrifuged for 10 minutes at 170 ×g and the supernatant platelet-rich plasma (PRP) is removed. The remaining blood is sharply centrifuged once more in order to obtain plasma. The PRP is diluted with autologous plasma 1:10. […] 100 μl thereof are measured in order to determine the free ligand. The pellet is dissolved in 500 μl of 0.2N NaOH, 450 μl are mixed with 25 μl of 5N HCl and measured. The residual plasma remaining in the pellet is determined from the ^14 C-content and the bound ligand is determined from the ^3 H-measurement. […]

For the compound `N=C(N)c1ccc(-c2ccc(OC[C@@H]3C[C@@H](CC(=O)O)C(=O)N3)cc2)cc1` [BIBU 52, (3S,5S)-5-[(4'-amidino-4-biphenylyl)-oxymethyl]-3-carboxymethyl-pyrrolidin-2-one], the “binding of tritiated BIBU 52 to human thrombocytes (FIG. 1)” value is on record as “supression of binding”.
